From patent US8158106B2, “Particle immobilized coatings and uses thereof” (Surmodics, Inc., priority 2001, dated 2012)

Legend:
[1] = Printed slurries of photoreactive compound and microparticles, presence after washes; assay type: physicochemical; conditions: slurry of 2.5 mg/ml compound and 20 mg/ml 9.9 μm silica microspheres printed, then irradiated
Description: Slurries were prepared, each containing different polymers and microparticles. These slurries were then disposed on a substrate and treated to form matrices in which microparticles were immobilized. Different polymeric materials were used to immobilize microparticles on a substrate. Four different photoreactive polymers were used to immobilize 9.9 μm diameter silica microparticles on substrates: […] BBDQ (as described in Example 4) a non-polymeric photoreactive material was also used in this Example. […] Each mixture was printed with 25 gauge disposable needles (PrecisionGlide Needles, Becton Dickinson and Co., Franklin Lakes, N.J.) and an x-y programmable stage (CAMM-3, Roland Digital Group, Irvine, Calif.) onto glass microscope slides which had been functionalized with silanes, as detailed in Example 1 and onto acrylic slides (Cadillac Plastics, Minneapolis, Minn.). This printing forms a pattern of approximately 300-400 μm diameter spots on the substrates. The coated substrates were irradiated for two minutes with ultraviolet light as detailed in Example 1. The coated substrates were then imaged with a fluorescence microscope (Olympus BX 60, Tokyo, Japan), to ensure that patterning was successful. Following this, the coated substrate was washed to remove any loosely bound microspheres. The coated substrates were washed three times with 1×PBS (pH 7.4) with 0.1% v/v Tween-20, rinsed with deionized water. At this point, each was again imaged with the fluorescence microscope to determine microsphere loss in the various photoreactive polymer matrices. After imaging, the coated substrates were incubated in a solution of T/E wash buffer for 1 hour at 50° C., followed by two rinses with deionized water. The coated substrates were then incubated in a solution of 4×SSC/0.1% SDS for two hours at 50° C. and rinsed in deionized water.

[2] = Entrapment of microparticles disposed on pre-irradiated photopolymer matrix spots, presence after washes; assay type: physicochemical; conditions: 9.9 μm silica microparticles disposed on irradiated spots, compound 2.5 mg/ml
Source text: Different polymeric materials were used to immobilize microparticles on a substrate. First, different polymers were disposed and treated on a substrate to form matrices. This was followed by disposing the microparticles on the substrates which were immobilized via the matrices. Four different photoreactive polymers were used to immobilize 9.9 μm diameter silica microparticles on substrates. […] Pat. No. 5,714,360 to Swan et al., issued Feb., 3, 1998, commonly owned by the assignee of the present invention, the disclosure of which is incorporated herein in its entirety), a non-polymeric photoreactive compound, was evaluated. […] Each solution was printed with 25 gauge disposable needles (PrecisionGlide Needles, Becton Dickinson and Co., Franklin Lakes, N.J.) and an x-y programmable stage (CAMM-3, Roland Digital Group, Irvine, Calif.) onto glass microscope slides which had been functionalized with silanes, as in Example 1, and onto acrylic slides (Cadillac Plastics, Minneapolis, Minn.). This printing forms a pattern of approximately 300-400 μm diameter spots on the substrates. The patterned slides were irradiated for two minutes with ultraviolet light as detailed in Example 1. After irradiation, 500 μl of an aqueous solution of 2 mg/ml 9.9 μm diameter silica microparticles (S[…], Bangs Laboratories, Fisher, Ind.) was placed over the patterned area for one minute to allow the microparticles to associate and become entrapped in the polymer matrices. The slides were then rinsed with 0.1% v/v Tween-20 aqueous solution to remove any free microparticles. Following this, the array was washed to remove loosely bound microspheres. The array was washed three times with 1×PBS (pH 7.4) with 0.1% v/v Tween-20, and then rinsed with deionized water. […] After imaging, the arrays were incubated in a solution of 0.1M TRIS and 50 mM ethanolamine (T/E) wash buffer for 1 hour at 50° C., followed by two rinses with deionized water. The microarrays were then incubated in a solution of 4×SSC/0.1% SDS for two hours at 50° C. and rinsed in deionized water. This was the final step at which imaging was done to evaluate the respective polymers.

Presence of microparticles after PBS-Tween wash ([1]; Acrylic substrate): No loss
Presence of microparticles after high salt wash (4X SSC) ([1]; Acrylic substrate): Complete loss
Presence of microparticles before washes ([1]; Acrylic substrate): Present
Presence of microparticles after PBS-Tween wash ([1]; Glass substrate): No loss
Presence of microparticles after high salt wash (4X SSC) ([1]; Glass substrate): Complete loss
Presence of microparticles before washes ([1]; Glass substrate): Present
Presence of microparticles after PBS-Tween wash ([2]; Acrylic substrate): Some loss
Presence of microparticles after high salt wash (4X SSC) ([2]; Acrylic substrate): Complete loss
Presence of microparticles before washes ([2]; Acrylic substrate): Present
Presence of microparticles after PBS-Tween wash ([2]; Glass substrate): Some loss
Presence of microparticles after high salt wash (4X SSC) ([2]; Glass substrate): Complete loss
Presence of microparticles before washes ([2]; Glass substrate): Present
SMILES: C[N+](C)(CC[N+](C)(C)Cc1ccc(C(=O)c2ccccc2)cc1)Cc1ccc(C(=O)c2ccccc2)cc1.[Br-].[Br-] [BBDQ, ethylene(4-benzoylbenzyldimethylammonium)dibromide]
